{
  "source": "patent US20160205931A1",
  "about": "“SEX PHEROMONE DERIVATIVES, AND METHODS AND USES THEREOF” (Her Majesty the Queen in Right of Canada, as rep. by the …, priority 2015, published 2016)",
  "key": {"[1]": {"tested_on": "male and female EAB antennae", "test": "Electroantennography (EAG), puff technique", "set-up": "species or system Agrilus planipennis", "conditions": "for electroantennogram activity with male or female EABs: compared with controls / with the (3Z)- and (3E)-lactones", "method": "Electroantennogram analyses (EAG) were conducted using methods and equipment generally described by Silk et al. in 2007 (Silk P J, et al (2007) Evidence for a male-produced pheromone in Tetropium fuscum (F.) (Coleoptera: Cerambycidae). Naturwissenschaften 94: 697-701). Antennae were excised close to the head and mounted using electrode gel (Spectra 360 electrode gel; Parker, Fairfield, N.J., USA) on an EAG probe (gold) for electrical contact. EAG signals were recorded using Syntech recording and analysis software v. 2.6 (Syntech, Hilversum, The Netherlands).\nThe (3Z)- and (3E)-lactones, and dodecan-12-olide were tested using the puff technique described by Silk et al. in 2011 (Silk P J, Ryall K, Mayo P, Lemay M, Grant G, Crook D, Cossé A, Fraser I, Sweeney J D, Lyons D B, Pitt D, Scarr T, Magee D (2011) Evidence for a volatile pheromone in Agrilus planipennis Fairmaire (Coleoptera: Buprestidae) that increases attraction to a host foliar volatile. Env Entomol 40: 904-916). Briefly: two microliters of serially diluted solutions (dichloromethane; DCM) of synthetic compounds were applied to filter paper strips (0.5 cm×5 cm, Whatman No. 1). The filter paper strips were placed in 14 cm long Pasteur pipettes, hereafter referred to as stimulus cartridges, after 5 min at room temperature. The stimulus dose tested was 1 μg. Male and female antennae were exposed to single 0.2 s puffs of odor-bearing air at 5 ml/s by placing the tip of a stimulus cartridge into a hole of a glass tube (0.7 cm ID×20 cm), 10 cm from the outlet and 11 cm away from the antennal preparation. Airflow through the glass tube was passed through a water bubbler and set at 10 ml/s. Each antennal preparation was tested with freshly prepared sets of stimuli cartridges using ˜6 male and ˜10 female antennae/treatment and used once for each treatment.\n(§1) For the EAG results, male and female EAG responses were submitted to analysis of variance (ANOVA) and mean responses to each of the tested compounds separated using Tukey's test (P<0.05). […] Finally, in the trapping study, numbers of male and female EAB captured among the three treatments were analyzed separately by fitting generalized linear mixed effect models, with block as a random factor, to the Poisson distribution (GLMER function, R Development Core Team 2013). Chi-square tests were used to determine if a significant proportion of the variation in capture of male and female EAB was attributable to treatment. Chi-square tests were considered significant at P=0.05 or less and, if significant, the means separated using the Tukey's contrast option in the GLHT function (R Development Core Team 2013); raw data are presented as means±standard error."}, "[2]": {"test": "Release rate of lures", "type": "physicochemical", "conditions": "25° C.", "method": "Traps were baited with one of three treatments: 1) (3Z)-hexenol alone; 2) 3.0 mg dose of (3Z)-lactone+(3Z)-hexenol; or 3) dodecan-12-olide+(3Z)-hexenol. The dodecan-12-olide dose was 3.0 mg or 5.0 mg. A higher dose of the analog was used to attempt to increase its effect on captures of EAB relative to the (3Z)-lactone. (3Z)-Lactone and the analog were each loaded onto rubber septa lures (Wheaton Scientific, Millville, N.J.). (3Z)-Hexenol lures were obtained from Synergy Semiochemicals. Release rates of the 3.0 mg (3Z)-lactone, 3.0 mg and 5.0 mg dodecan-12-olide lures, and (3Z)-hexenol were ˜66 μg/d, ˜60 μg/d and ˜80 μg/d. These values were determined as in Silk et al. 2011, and 50-100 mg/d (by weight loss), respectively, at 25° C. The (3Z)-lactone and analog lures were estimated to maintain sustained and almost constant release rates for a minimum of 6 wk, and thus were not replaced during the experiment. Similarly, (3Z)-hexenol lures were not replaced during the experiment."}, "[3]": {"tested_on": "adult EAB", "test": "Two-choice Y-tube olfactometer bioassay", "type": "in vivo, Agrilus planipennis", "conditions": "1 μg stimulus", "method": "A Y-tube olfactometer (Analytical Research Systems Inc, Micanopy, Fla., USA) was used to test for short-range attraction of adult EAB to the lactones. […] Each arm was connected to a cylinder that contained the stimulus. Charcoal-filtered air was passed into each arm at a flow rate of 1.2 L/min. Treatments were 1 μg each of (3Z)-lactone, (3E)-lactone, and dodecan-12-olide. Each stimulus was diluted in dichloromethane, placed on a strip of filter paper, and given 1 min for the solvent to evaporate before being placed in the olfactometer. A filter paper with only solvent (control) was placed in the other arm of the olfactometer. The apparatus was rinsed with acetone after each treatment, and the arm attached to the test stimulus was randomized between replicates. For each trial, a single EAB (male or female) was given 10 min to choose between the two stimuli. A choice was recorded when the beetle passed a “finish line”, 7 cm beyond the branching point of each arm. […] Beetles were 8-14 d old, and 18-23 beetles were used per treatment.\nas §1"}, "[4]": {"tested_on": "EAB", "test": "Field trapping studies, dark green sticky prism traps co-baited with (3Z)-hexenol", "type": "in vivo, Agrilus planipennis", "method": "Three trapping experiments were conducted to test the effects of (3Z)-lactone and dodecan-12-olide on mean captures of EAB on dark green sticky prism traps using protocols discussed by Francese et al. in 2010 (Francese J A, Crook D J, Fraser I, Lance D A, A. J. Sawyer A J, Mastro V C (2010a) Optimization of trap color for the emerald ash borer, Agrilus planipennis (Coleoptera: Buprestidae). J Econ Entomol 103: 1235-1241) co-baited with (3Z)-hexenol. Urban street trees were used: trees were 20-40 cm in diameter, and 10-16 m in height. […] Dark green prism sticky traps (0.30×25.00×58.75 cm) (Synergy Semiochemicals Corp., Burnaby, British Columbia) were used in all field trials. Traps were spaced˜25 m apart, and lure treatments replicated in a randomized complete block design. Traps were deployed using either a limb hook over a lower to mid-canopy branch or a single rope over a mid-canopy branch. In both years, traps were checked every 2 wk and all EAB were collected, counted, and sexed.\nTraps were baited with one of three treatments: 1) (3Z)-hexenol alone; 2) 3.0 mg dose of (3Z)-lactone+(3Z)-hexenol; or 3) dodecan-12-olide+(3Z)-hexenol. The dodecan-12-olide dose was 3.0 mg or 5.0 mg. A higher dose of the analog was used to attempt to increase its effect on captures of EAB relative to the (3Z)-lactone. (3Z)-Lactone and the analog were each loaded onto rubber septa lures (Wheaton Scientific, Millville, N.J.). (3Z)-Hexenol lures were obtained from Synergy Semiochemicals. […] These values were determined as in Silk et al. 2011, and 50-100 mg/d (by weight loss), respectively, at 25° C. […]\nFor the EAG results, male and female EAG responses were submitted to analysis of variance (ANOVA) and mean responses to each of the tested compounds separated using Tukey's test (P<0.05). […] Finally, in the trapping study, numbers of male and female EAB captured among the three treatments were analyzed separately by fitting generalized linear mixed effect models, with block as a random factor, to the Poisson distribution (GLMER function, R Development Core Team 2013). […]"}},
  "data": [
    {"smiles": "O=C1/C=C/CCCCCCCCCO1", "note": "[2E-dodecan-12-olide]", "values": [
      {"measurement": "electroantennogram activity with male or female EABs", "setting": "[1]", "result": "not significantly different from the controls"}
    ]},
    {"smiles": "CC/C=C\\CCO", "note": "[(3Z)-hexenol, reference compound]", "values": [
      {"measurement": "release rate of lure", "setting": "[2]; by weight loss", "result": "50000 to 100000", "unit": "µg/day"}
    ]},
    {"smiles": "O=C1CCCCCCCCCCCO1", "note": "[dodecan-12-olide]", "values": [
      {"measurement": "mean EAG responses of male and female EAB antennae", "setting": "[1]; 1 μg source concentration, vs solvent control (dichloromethane), responses to the three compounds not significantly different from each other (Tukey's), FIG. 4", "result": "significantly greater than those to the solvent control"},
      {"measurement": "electroantennogram activity with male or female EABs", "setting": "[1]", "result": "comparable to the corresponding electroantennogram activity both the natural (3Z)-lactone and the (3E)-lactone analog"},
      {"measurement": "attraction of female EAB to stimulus vs solvent control", "setting": "[3]; females, 10 min choice, chi-square vs 1:1, FIG. 6", "result": "attracted"},
      {"measurement": "attraction of male EAB to stimulus vs solvent control", "setting": "[3]; males, 10 min choice, chi-square vs 1:1, FIG. 5", "result": "attracted"},
      {"measurement": "females captured vs the other two treatments", "setting": "[4]; FIG. 7a, 3 mg per lure, co-baited with (3Z)-hexenol", "result": "significantly more females were captured"},
      {"measurement": "females captured vs (3Z)-hexenol alone", "setting": "[4]; FIG. 7b, dodecan-12-olide 5 mg, (3Z)-lactone 3 mg per lure, P<0.01", "result": "more females were captured"},
      {"measurement": "activity relative to the natural (3Z)-lactone under comparable conditions", "setting": "[4]; field trial, 3 mg per lure, male captures", "result": "about 85%"},
      {"measurement": "release rate of lure", "setting": "[2]; 3.0 mg on rubber septa lure", "result": "~60", "unit": "µg/day"},
      {"measurement": "release rate of lure", "setting": "[2]; 5.0 mg on rubber septa lure", "result": "~80", "unit": "µg/day"}
    ]},
    {"smiles": "O=C1CCCCCCCCCCCCCCO1", "note": "[pentadecan-15-olide, reference compound]", "values": [
      {"measurement": "electroantennogram activity with male or female EABs", "setting": "[1]", "result": "not significantly different from the controls"}
    ]},
    {"smiles": "O=C1C/C=C/CCCCCCCCO1", "note": "[(3E)-lactone, (3E)-dodecen-12-olide, reference compound]", "values": [
      {"measurement": "electroantennogram activity with male or female EABs", "setting": "[1]", "result": "active"},
      {"measurement": "proportion of the beetles that chose the stimulus arm", "setting": "[3]; about 25% chose the control, no-choice beetles excluded, sex not given", "result": "about 75%"}
    ]},
    {"smiles": "O=C1C/C=C\\CCCCCCCCO1", "note": "[(3Z)-lactone, (3Z)-dodecen-12-olide, reference compound]", "values": [
      {"measurement": "electroantennogram activity with male or female EABs", "setting": "[1]", "result": "active"}
    ]}
  ]
}
